Test results taken from publication PMC10424186 (Journal of Medicinal Chemistry, 2023).
Like-named read-outs stand apart in the source and are kept apart here.

What was measured:
[1] = target: T1, KDM4E (Homo sapiens, UniProt B2RXH2); details: cited from earlier work
T1 construct: made in house; host or cells: Escherichia coli
T1 sequence (B2RXH2 1-506): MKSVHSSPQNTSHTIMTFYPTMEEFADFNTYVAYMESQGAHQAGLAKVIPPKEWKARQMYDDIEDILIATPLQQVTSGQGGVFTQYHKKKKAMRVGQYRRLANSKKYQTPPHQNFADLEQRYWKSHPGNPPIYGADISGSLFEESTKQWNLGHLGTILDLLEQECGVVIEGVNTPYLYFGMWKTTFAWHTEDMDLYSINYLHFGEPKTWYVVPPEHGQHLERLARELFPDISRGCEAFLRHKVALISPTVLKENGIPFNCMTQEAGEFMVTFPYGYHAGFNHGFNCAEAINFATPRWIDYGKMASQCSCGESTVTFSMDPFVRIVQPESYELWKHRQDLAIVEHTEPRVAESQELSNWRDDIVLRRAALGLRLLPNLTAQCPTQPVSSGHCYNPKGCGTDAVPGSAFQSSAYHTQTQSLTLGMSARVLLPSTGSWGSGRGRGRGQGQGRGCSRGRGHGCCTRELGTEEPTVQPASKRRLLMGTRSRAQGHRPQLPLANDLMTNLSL

[2] = target: human JMJD5 (Homo sapiens, UniProt Q8N371); experiment: SPE-MS JMJD5 inhibition assay (hydroxylation of RPS6 128–148 peptide); assay type: biochemical
Chain of human JMJD5 (Q8N371 whole entry, the tested form may be a part): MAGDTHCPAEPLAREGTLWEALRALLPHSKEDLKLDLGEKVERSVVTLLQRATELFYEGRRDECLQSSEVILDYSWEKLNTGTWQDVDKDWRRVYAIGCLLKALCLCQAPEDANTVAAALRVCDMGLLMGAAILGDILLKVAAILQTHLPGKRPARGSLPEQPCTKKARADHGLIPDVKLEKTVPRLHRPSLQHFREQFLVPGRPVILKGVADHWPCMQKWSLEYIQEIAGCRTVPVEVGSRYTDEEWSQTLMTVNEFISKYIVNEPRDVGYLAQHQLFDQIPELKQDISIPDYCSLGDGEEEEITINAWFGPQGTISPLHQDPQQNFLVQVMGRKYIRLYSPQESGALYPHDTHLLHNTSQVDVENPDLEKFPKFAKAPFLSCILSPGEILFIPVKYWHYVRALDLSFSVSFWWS
From the text: Synthetic peptides with sequences based on reported human 2OG oxygenase substrates were used in SPE-MS inhibition assays: RPS6, residues 128–148, for JMJD5;[42] HIF-α CODD, residues 558–574, for PHD2;[70] HIF-α CAD, residues 788–822, for FIH;[70] H3_1-15K9me3, histone 3 (H3), residues 1–15 with K9 of H3-bearing three methyl groups at the N^ε-position, K4 of H3 substituted by an alanine residue, and K14 of H3 by an isoleucine residue,[73] for KDM4E; and RPL27A, residues 31–49, for RIOX2 (Mina53).[44] All peptides were prepared as C-terminal amides by GL Biochem (Shanghai) Ltd. A synthetic thioether-linked cyclic peptide, hFX-CP101–119,[48] which was designed based on the reported cellular AspH substrate human coagulation factor X (hFX, residues 101–119; C101 was substituted for a D-alanine residue and C112 for a serine residue),[79] was used as AspH substrate; it was prepared with a C-terminal amide according to literature protocols.[80]
Cosubstrate/cofactor stock solutions [L-ascorbic acid/LAA: 50 mM in MQ-grade water; 2-oxoglutarate/2OG: 10 mM in MQ-grade water; ammonium iron(II) sulfate hexahydrate/FAS/(NH4)2Fe(SO4)2·6H2O: 400 mM in 20 mM HCl diluted to 1 mM in MQ-grade water] were freshly prepared from commercial solids (Sigma-Aldrich) on the day the assays were performed. The JMJD5,[42] PHD2,[70] FIH,[70] KDM4E,[72],[73] RIOX2,[44] and AspH[45] SPE-MS inhibition assays were performed as described in the cited literature, using isolated recombinant human enzymes (His6-thioredoxin-JMJD5,[42] His6-PHD2_181–426,[70] His6-FIH,[70] His6-KDM4E,[72],[73] His6-RIOX2_26–465,[87],[88] and His6-AspH315–758[48],[80]) and synthetic peptide substrates (RPS6_128–148 for JMJD5;[42] HIF-α CODD558–574 for PHD2;[70] HIF-α CAD788–822 for FIH;[70] H3_1–15K9me3 for KDM4E;[73] RPL27A31–49 for RIOX2;[44],[71] and hFX-CP101–119 for AspH;[45],[48] see above). For JMJD5, PHD2, FIH, RIOX2, and AspH, substrate hydroxylation was monitored (+16 Da mass shift), while for the KDM4E substrate, demethylation was monitored (−14 Da mass shift) by SPE-MS.

[3] = target: T2, AspH (Homo sapiens, UniProt Q12797); details: isolated recombinant AspH; cited from earlier work
T2 construct: N-terminally His6-tagged AspH315–758; made in house; host or cells: Escherichia coli
T2 sequence (Q12797 315-758): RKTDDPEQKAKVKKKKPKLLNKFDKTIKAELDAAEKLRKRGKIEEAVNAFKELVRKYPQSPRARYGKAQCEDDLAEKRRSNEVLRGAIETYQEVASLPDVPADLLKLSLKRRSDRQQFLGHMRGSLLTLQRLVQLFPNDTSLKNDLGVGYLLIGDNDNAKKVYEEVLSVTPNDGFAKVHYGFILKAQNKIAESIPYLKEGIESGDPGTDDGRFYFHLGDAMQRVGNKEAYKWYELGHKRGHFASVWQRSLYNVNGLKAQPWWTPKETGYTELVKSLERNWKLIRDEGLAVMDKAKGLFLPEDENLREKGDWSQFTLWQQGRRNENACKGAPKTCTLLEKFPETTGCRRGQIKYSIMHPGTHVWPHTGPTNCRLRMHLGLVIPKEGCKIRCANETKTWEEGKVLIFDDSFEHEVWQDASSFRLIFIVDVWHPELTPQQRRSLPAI

[4] = tested on: U2OS bone osteosarcoma cells; experiment: CyQuant viability assay (DNA content), U2OS; assay type: cell-based; details: 1.0–100 μM, 72 h
Procedure: Cell proliferation/viability was measured using MTS (CellTiter 96 Aqueous One 667 Solution Cell Proliferation Assay, Promega) and CyQUANT (Thermo Fisher) assays. CellTiter 96 Aqueous MTS reagent (Promega) and phenazine methosulfate (Sigma-Aldrich) were dissolved in phosphate-buffered saline (PBS) according to the manufacturer’s protocol. The MTS working reagent was made according to the manufacturer’s protocol and added to each well containing the cells. Plates were incubated for 1 h at 37 °C under 5% CO2, protected from light, and then the absorbance was measured at 490 nm using an EnSpire Multimode plate reader (PerkinElmer). For the cyQUANT assay, the reagents were prepared according to the manufacturer’s protocol and added to the cells. The cells were incubated for 1 h at 37 °C under 5% CO2, protected from light; fluorescence was then measured with excitation at ∼485 nm and emission detection at ∼530 nm using an EnSpire Multimode plate reader.
viability of U2OS bone osteosarcoma cells.
derivatives 19i and 19j (1.0, 5.0, 10, 50, 100 μM) for 72 h and then tested for viability using the CyQuant assay,
which measures DNA content. Data represent mean ± SEM from independent experiments.
(1 picture or pasted object on this page, not shown here)

[5] = tested on: U2OS bone osteosarcoma cells; experiment: MTS cell viability assay, U2OS; assay type: cell-based; details: for CC50: Homo sapiens
From the text: (§1) A biochemical readout of JMJD5 arginine residue hydroxylase activity in cells is not available; we thus focused our studies on biological readouts previously linked to JMJD5 function in order to investigate cellular responses resulting from JMJD5 inhibitor treatment. JMJD5 loss of function by RNA interference is reported to affect tumor cell proliferation and viability;[16],[18],[20],[21] we therefore studied the effects of 19i and 19j on the growth of three different tumor cell lines.
(§2) (a) U2OS bone osteosarcoma, (b) A549 lung adenocarcinoma, and (c) PC3 prostate adenocarcinoma cells were treated with the indicated doses of 19i and 19j (1.0, 5.0, 10, 50, and 100 μM) for 72 h and then tested for viability using the 3-(4,5-dimethylthiazol-2-yl)-5-(3-carboxymethoxyphenyl)-2-(4-sulfophenyl)-2H-tetrazolium (MTS) assay. A549 cells were treated with 19i or 19j (1.0 μM) for 24 h, then stained with (d) propidium iodide and analyzed by FACS or (e) DAPI staining for nuclei (left) and anti-53BP1 (for 53BP1 bodies, right). Cells were counted for 53BP1 bodies (f) and micronuclei (g). Data represent mean ± SEM from three (a–d) or four (f–g) independent replicates. For 53BP1 bodies, a minimum of 300 cells were counted per sample. For micronuclei, a minimum of 500 cells were counted per sample. Statistical analyses used one-way ANOVA with Tukey’s post hoc test [with p-value ≤ 0.01 (**)]. […]
Cell proliferation/viability was measured using MTS (CellTiter 96 Aqueous One 667 Solution Cell Proliferation Assay, Promega) and CyQUANT (Thermo Fisher) assays. […] Plates were incubated for 1 h at 37 °C under 5% CO2, protected from light, and then the absorbance was measured at 490 nm using an EnSpire Multimode plate reader (PerkinElmer). […] The cells were incubated for 1 h at 37 °C under 5% CO2, protected from light; fluorescence was then measured with excitation at ∼485 nm and emission detection at ∼530 nm using an EnSpire Multimode plate reader.

[6] = tested on: A549 lung adenocarcinoma cells; experiment: MTS cell viability assay, A549; assay type: cell-based; details: Homo sapiens, 72 h, read-out: half-maximum cytotoxicity concentration (CC50)
From the text: as §1
as §2, with “Data represent mean ± SEM from three (a–d) or four (f–g) independent replicates.” left out, “sample.” for “sample. Statistical analyses used one-way ANOVA with Tukey’s post hoc test [with p-value ≤ 0.01 (**)].”
(§3) Cell proliferation/viability was measured using MTS (CellTiter 96 Aqueous One 667 Solution Cell Proliferation Assay, Promega) and CyQUANT (Thermo Fisher) assays. […]

[7] = tested on: A549 cells; experiment: Replication stress: 53BP1 bodies and micronuclei (immunofluorescence/DAPI); assay type: cell-based; details: 1.0 μM, 24 h
Procedure: (§4) (a) U2OS bone osteosarcoma, (b) A549 lung adenocarcinoma, and (c) PC3 prostate adenocarcinoma cells were treated with the indicated doses of 19i and 19j (1.0, 5.0, 10, 50, and 100 μM) for 72 h and then tested for viability using the 3-(4,5-dimethylthiazol-2-yl)-5-(3-carboxymethoxyphenyl)-2-(4-sulfophenyl)-2H-tetrazolium (MTS) assay. A549 cells were treated with 19i or 19j (1.0 μM) for 24 h, then stained with (d) propidium iodide and analyzed by FACS or (e) DAPI staining for nuclei (left) and anti-53BP1 (for 53BP1 bodies, right). Cells were counted for 53BP1 bodies (f) and micronuclei (g). Data represent mean ± SEM from three (a–d) or four (f–g) independent replicates. For 53BP1 bodies, a minimum of 300 cells were counted per sample. For micronuclei, a minimum of 500 cells were counted per sample. Statistical analyses used one-way ANOVA with Tukey’s post hoc test [with p-value ≤ 0.01 (**)].
(§5) Because JMJD5 RNA interference has been associated with disturbances in the cell cycle,[1],[2],[81],[82] we measured phase distribution by flow cytometry in A549 cells (Figure 6d). Treatment with 19i or 19j for 24 h caused a reduction in G1-phase cells, with a corresponding increase in S- and G2/M-phase cells. […] We have recently reported that JMJD5 loss of function induces replication stress,[14] which is defined as a perturbation that slows or stalls DNA replication.[83] Unresolved replication stress can be measured by an increase in G1-phase 53BP1 “bodies” and micronuclei (Figure 6e), which are extranuclear DNA bodies that result from DNA cleavage and genome instability following replication stress.
Cells on coverslips were pre-extracted on ice for 5 min using a buffer containing 20 mM NaCl, 3 mM MgCl2, 300 mM sucrose, 10 mM PIPES, and 0.5%v/v Triton X-100 and fixed using 4%v/v paraformaldehyde (PFA) in PBS for 15 min at ambient temperature. Cells were then permeabilized in 0.1%v/v Triton X-100 in PBS at ambient temperature for 10 min and blocked in 1%w/v bovine serum albumin (BSA) in PBS for 1 h at ambient temperature. Coverslips were incubated with anti-53BP1 antibody (Bio-Techne, NB100-904V) diluted in 1%w/v BSA in PBS at ambient temperature for 1 h in the dark. Coverslips were then washed three times with cold 1%w/v BSA in PBS following incubation for 1 h with secondary antibodies (anti-mouse 555 nm A31570 or anti-rabbit 488 nm A11070, Thermo Fisher). The coverslips were washed three times with cold PBS and incubated for 10 min with 4′,6-diamidino-2-phenylindole (DAPI) (Invitrogen) to stain for nuclei. Prolong Gold Antifade Reagent (Cell Signaling Technology) was used to mount the coverslips onto microscope slides. Images were taken using 40× objective on a Leica DM6000 fluorescent microscope and processed with ImageJ.

[8] = tested on: A549 cells; experiment: Cell-cycle analysis (propidium iodide, FACS); assay type: cell-based; details: 1.0 μM, 24 h
Procedure: as §4, §5
Cell-cycle analyses were performed using A549 cells fixed in ice-cold 70%v/v ethanol. Cells were incubated with 100 μg/mL RNase A (Thermo Fisher Scientific), stained with 20 μg/mL propidium iodide, and then analyzed using Beckman Coulter CytoFLEX S. Representative FACS profiles were generated using Beckman CytExpert software.

[9] = tested on: PC3 prostate adenocarcinoma cells; experiment: MTS cell viability assay, PC3; assay type: cell-based; details: 1.0–100 μM, 72 h
From the text: as §1
as §2, with “Data represent mean ± SEM from three (a–d) or four (f–g) independent replicates.” left out, “sample.” for “sample. Statistical analyses used one-way ANOVA with Tukey’s post hoc test [with p-value ≤ 0.01 (**)].”
as §3

Compound | KDM4E inhibition (in words) [1] | IC50 ([2]; Table 1, JMJD5 […], 2OG 2.0 μM, Fe(II) 2.0 μM, LAA 100 μM, RPS6 128–148 2.0 μM, pH 7.5, 20 °C, n = 3, mean ± SD, read-out: IC50 JMJD5) | JMJD5 inhibition (in words) ([2]; isolated recombinant JMJD5, SPE-MS) | IC50 ([2]; isolated recombinant JMJD5, SPE-MS, approximate values, read-out: IC50 for JMJD5 inhibition) | AspH inhibition (in words) [3] | viability (CyQuant, in words) [4] | CC50 ([5]; 72 h, MTS, read-out: half-maximum cytotoxicity concentration (CC50)) | CC50 [6] | 53BP1 bodies [7] | micronuclei [7] | G1-phase cells [8] | S- and G2/M-phase cells [8] | Sub-G1-phase cell numbers [8] | effect on cell growth (in words) ([5]; 1.0–100 μM, 72 h, MTS) | CC50 ([5]; supplementary CSV, read-out: CC50 U2OS cells) | effect on cell growth (in words) [9]
O=C(O)c1ccnc(C(=O)O)c1C(F)(F)F [Compound 14, 3-trifluoromethyl-2,4-PDCA] | not to inhibit KDM4E | > 50 µM | did not efficiently inhibit JMJD5 | > 50 µM | does not inhibit |  |  |  |  |  |  |  |  |  |  | 
COC(=O)c1cc(C(=O)OC)c(NCc2ccccc2C2CC2)cn1 [Compound 19j] |  |  |  |  |  | reduced viability | 10 µM | 2.1 µM | significantly induced | significantly induced | reduction | increase | increased |  |  | 
COC(=O)c1cc(C(=O)OC)c(NCc2ccccc2OC)cn1 [Compound 19i] |  |  |  |  |  | reduced viability |  | 10.7 µM | significantly induced | significantly induced | reduction | increase | increased | did not significantly affect | > 100 µM | did not significantly affect
